# Literature values in paper PMC10720383, “Acetylcholinesterase Inhibition in Rats and Humans Following Acute Fenitrothion Exposure Predicted by Physiologically Based Kinetic Modeling-Facilitated Quantitative In Vitro to In Vivo Extrapolation” (Environmental Science & Technology, 2023).
# Like-named read-outs stand apart in the source and are kept apart here.
# Test system: erythrocyte AChE
# Conditions: cited from earlier work
smiles,measurement,setting,value
"COP(=S)(OC)Oc1ccc([N+](=O)[O-])c(C)c1 [FNT, O,O-dimethyl O-4-nitro-m-tolyl phosphorothioate]",acute reference dose (ARfD),JMPR,0.04 mg/kg BW/day
same,acute reference dose (ARfD),US EPA,0.0025 mg/kg BW/day
